Source: the supplement of paper PMC11061612

How the values were obtained:
Test in all cases: Bliss excess, mean over the matrix (fraction); higher = more synergy
T98G (Glioblastoma) = system: T98G (Glioblastoma)
How it was run: (§1)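 Cell lines grown in DMEM/F12 or RPMI with 10% FBS were plated in 1536-well plates and held 24 hours at 37°C, 5% CO2 before 72 hours of exposure to two-drug dose matrices, with DMSO typically at 0.2%. CellTiter-Glo 2.0 luminescence gave viability, which was converted to inhibition. Vehicle wells were set to 0 and blank wells to 1. Combination Emax is the second-highest inhibition in the matrix, and Bliss excess is the observed combination effect minus the expected EA + EB − EA·EB, where EA and EB are the single-agent effects.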

[1] = system: TCCSUP (Bladder Carcinoma)
How it was run: as §1

AGS (Gastric Carcinoma) = system: AGS (Gastric Carcinoma)
How it was run: as §1

[2] = system: COLO-205 (Colorectal Carcinoma)
How it was run: as §1

[3] = system: EC-GI-10 (Esophageal Squamous Cell Carcinoma)
How it was run: as §1

42-MG-BA (Glioblastoma) = system: 42-MG-BA (Glioblastoma)
How it was run: as §1

[4] = system: SNU-5 (Gastric Carcinoma)
How it was run: as §1

ES4 (Ewing's Sarcoma) = system: ES4 (Ewing's Sarcoma)
How it was run: as §1

[5] = system: TE-15 (Esophageal Squamous Cell Carcinoma)
How it was run: as §1

[6] = system: LU-135 (Small Cell Lung Carcinoma)
How it was run: as §1

[7] = system: TE-9 (Esophageal Squamous Cell Carcinoma)
How it was run: as §1

[8] = system: HO-1-N-1 (Oral Cavity Carcinoma)
How it was run: as §1

[9] = system: UM-UC-3 (Bladder Carcinoma)
How it was run: as §1

[10] = system: NCI-H82 (Small Cell Lung Carcinoma)
How it was run: as §1

[11] = system: DEL (T-Cell Non-Hodgkin's Lymphoma)
How it was run: as §1

[12] = system: Ramos-2G6-4C10 (Burkitt's Lymphoma)
How it was run: as §1

[13] = system: HCC-78 (Lung Adenocarcinoma)
How it was run: as §1

[14] = system: DoTc2-4510 (Cervical Carcinoma)
How it was run: as §1

[15] = system: ME-1 (Acute Myeloid Leukemia)
How it was run: as §1

[16] = system: SK-ES-1 (Ewing's Sarcoma)
How it was run: as §1

`Cc1c2c(nn1C)CSCc1cc(n(C)n1)CSc1cc(c3ccccc3c1)OCCCc1c(C(=O)O)n(C)c3c-2c(Cl)ccc13` [AZD5991] + CCN(CCO)CCCOc1ccc2c(Nc3cc(CC(=O)Nc4cccc(F)c4)[nH]n3)ncnc2c1 [AZD2811] (first compound max 1 µM, 7x7, partner max 1 µM) gave a Bliss excess (T98G (Glioblastoma)) of -0.0339, a Bliss excess [1] of -0.0288 and a Bliss excess (AGS (Gastric Carcinoma)) of 0.0374. For the same molecule, the Bliss excess [2] was 0.0153, the Bliss excess [3] was 0.156 and the Bliss excess (42-MG-BA (Glioblastoma)) was 0.0282. It also gave a Bliss excess [4] of 0.0306, a Bliss excess (ES4 (Ewing's Sarcoma)) of 0.0003 and a Bliss excess [5] of 0.0649. It also gave a Bliss excess [6] of 0.0109, a Bliss excess [7] of -0.0235 and a Bliss excess [8] of 0.0237. For the same molecule, the Bliss excess [9] was 0.0296, the Bliss excess [10] was 0.103 and the Bliss excess [11] was -0.0295. For the same molecule, the Bliss excess [12] was 0.141, the Bliss excess [13] was 0.0209 and the Bliss excess [14] was 0.0509. For the same molecule, the Bliss excess [15] was 0.0139 and the Bliss excess [16] was 0.0028.

For `CN(CCO)CC[C@H](CSc1ccccc1)Nc1ccc(S(=O)(=O)NC(=O)c2ccc(N3CCC([C@@H](O)c4ccccc4-c4ccc(Cl)cc4)CC3)cc2)cc1S(=O)(=O)C(F)(F)F` [AZD4320] + C[C@@H]1COCCN1C2=NC(=NC(=C2)C3(CC3)[S@](=N)(=O)C)C4=C5C=CNC5=NC=C4 [AZD6738] (first compound max 1 µM, 7x7, partner max 10 µM), the Bliss excess (T98G (Glioblastoma)) was -0.0468, the Bliss excess [1] was 0.009 and the Bliss excess (AGS (Gastric Carcinoma)) was -0.0162. It also gave a Bliss excess [2] of -0.0575, a Bliss excess [3] of -0.0341 and a Bliss excess (42-MG-BA (Glioblastoma)) of 0.0154. For the same molecule, the Bliss excess [4] was 0.0061, the Bliss excess (ES4 (Ewing's Sarcoma)) was 0.0351 and the Bliss excess [5] was -0.041. It also gave a Bliss excess [6] of 0.0417, a Bliss excess [7] of 0.0198 and a Bliss excess [8] of 0.026. The Bliss excess [9] was 0.0368, the Bliss excess [10] was -0.0251 and the Bliss excess [11] was 0.0294. The Bliss excess [12] was -0.0342, the Bliss excess [13] was -0.0564 and the Bliss excess [14] was -0.0202. For the same molecule, the Bliss excess [15] was 0.0166 and the Bliss excess [16] was 0.0339.

`CC1(C)CCC(CN2CCN(c3ccc(C(=O)NS(=O)(=O)c4ccc(NCC5CCOCC5)c([N+](=O)[O-])c4)c(Oc4cnc5[nH]ccc5c4)c3)CC2)=C(c2ccc(Cl)cc2)C1` [Venetoclax] + C[C@@H]1COCCN1C2=NC(=NC(=C2)C3(CC3)[S@](=N)(=O)C)C4=C5C=CNC5=NC=C4 [AZD6738] (first compound max 1 µM, 7x7, partner max 10 µM) gave a Bliss excess (T98G (Glioblastoma)) of -0.061, a Bliss excess [1] of -0.1 and a Bliss excess (AGS (Gastric Carcinoma)) of -0.0423. For the same molecule, the Bliss excess [2] was -0.0328, the Bliss excess [3] was 0.0294 and the Bliss excess (42-MG-BA (Glioblastoma)) was -0.0057. It also gave a Bliss excess [4] of -0.0437, a Bliss excess (ES4 (Ewing's Sarcoma)) of -0.0465 and a Bliss excess [5] of -0.0314. It also gave a Bliss excess [6] of 0.0538, a Bliss excess [7] of -0.0019 and a Bliss excess [8] of -0.0248. It also gave a Bliss excess [9] of -0.0296, a Bliss excess [10] of 0.0098 and a Bliss excess [11] of 0.01. The Bliss excess [12] was -0.0389, the Bliss excess [13] was -0.0195 and the Bliss excess [14] was -0.0174. For the same molecule, the Bliss excess [15] was 0.0345 and the Bliss excess [16] was 0.0104.

For `CC(=O)c1c(C)c2cnc(Nc3ccc(N4CCNCC4)cn3)nc2n(C2CCCC2)c1=O` [Palbociclib] + Cc1c2c(nn1C)CSCc1cc(n(C)n1)CSc1cc(c3ccccc3c1)OCCCc1c(C(=O)O)n(C)c3c-2c(Cl)ccc13 [AZD5991] (first compound max 10 µM, 7x7, partner max 1 µM), the Bliss excess (T98G (Glioblastoma)) was 0.0003, the Bliss excess [1] was -0.0395 and the Bliss excess (AGS (Gastric Carcinoma)) was -0.04. The Bliss excess [2] was -0.0487, the Bliss excess [3] was 0.0305 and the Bliss excess (42-MG-BA (Glioblastoma)) was -0.0391. For the same molecule, the Bliss excess [4] was -0.0206, the Bliss excess (ES4 (Ewing's Sarcoma)) was -0.046 and the Bliss excess [5] was -0.0236. For the same molecule, the Bliss excess [6] was 0.0165, the Bliss excess [7] was -0.0334 and the Bliss excess [8] was -0.0554. It also gave a Bliss excess [9] of -0.0212, a Bliss excess [10] of -0.0534 and a Bliss excess [11] of 0.0007. It also gave a Bliss excess [12] of -0.0226, a Bliss excess [13] of -0.0015 and a Bliss excess [14] of -0.0143. The Bliss excess [15] was -0.0141 and the Bliss excess [16] was -0.0088.

`CN(C)CCCOc1ccc(-c2ccc3ncc4c(c3c2)n(C2CCOCC2)c(=O)n4C)cn1` [AZD0156] + CCN(CCO)CCCOc1ccc2c(Nc3cc(CC(=O)Nc4cccc(F)c4)[nH]n3)ncnc2c1 [AZD2811] (first compound max 1 µM, 7x7, partner max 1 µM) showed a Bliss excess (T98G (Glioblastoma)) of -0.0655, a Bliss excess [1] of -0.0589 and a Bliss excess (AGS (Gastric Carcinoma)) of -0.0047. For the same molecule, the Bliss excess [2] was 0.0035, the Bliss excess [3] was 0.0507 and the Bliss excess (42-MG-BA (Glioblastoma)) was 0.0813. For the same molecule, the Bliss excess [4] was 0.0036, the Bliss excess (ES4 (Ewing's Sarcoma)) was 0.03 and the Bliss excess [5] was -0.0382. For the same molecule, the Bliss excess [6] was -0.0008, the Bliss excess [7] was -0.0214 and the Bliss excess [8] was 0.0056. It also gave a Bliss excess [9] of -0.0079, a Bliss excess [10] of 0.0315 and a Bliss excess [11] of 0.117. For the same molecule, the Bliss excess [12] was 0.0919, the Bliss excess [13] was -0.0058 and the Bliss excess [14] was -0.0111. It also gave a Bliss excess [15] of -0.0275 and a Bliss excess [16] of -0.0011.

`CC1(C)CCC(CN2CCN(c3ccc(C(=O)NS(=O)(=O)c4ccc(NCC5CCOCC5)c([N+](=O)[O-])c4)c(Oc4cnc5[nH]ccc5c4)c3)CC2)=C(c2ccc(Cl)cc2)C1` [Venetoclax] + C1CN(CCC1(C(=O)N[C@@H](CCO)C2=CC=C(C=C2)Cl)N)C3=NC=NC4=C3C=CN4 [Capivasertib] (first compound max 1 µM, 7x7, partner max 3 µM) showed a Bliss excess (T98G (Glioblastoma)) of -0.0382, a Bliss excess [1] of -0.0196 and a Bliss excess (AGS (Gastric Carcinoma)) of -0.0406. The Bliss excess [2] was -0.0423, the Bliss excess [3] was -0.0488 and the Bliss excess (42-MG-BA (Glioblastoma)) was -0.0239. It also gave a Bliss excess [4] of -0.0485, a Bliss excess (ES4 (Ewing's Sarcoma)) of -0.0231 and a Bliss excess [5] of -0.0429. The Bliss excess [6] was -0.0429, the Bliss excess [7] was -0.0114 and the Bliss excess [8] was -0.0176. For the same molecule, the Bliss excess [9] was 0.0009, the Bliss excess [10] was -0.0458 and the Bliss excess [11] was -0.0589. The Bliss excess [12] was 0.0177, the Bliss excess [13] was -0.0331 and the Bliss excess [14] was -0.0185. For the same molecule, the Bliss excess [15] was 0 and the Bliss excess [16] was 0.0068.
